Patent publication US10696660B2, “Rho kinase inhibitors” (priority 2012, dated 2020)
“Also recorded” adds a separate entry of the source.

How the values were obtained:
human CD4^+ T cells = test: proliferation of T cells in response to TCR stimulation in vitro; type: cell-based; conditions: listed as KD025
STAT3 = STAT3 phosphorylation in T cells; type: cell-based, human
[1] = test system: CD4^+ T cells from RA patients; test: cytokine secretion ex vivo by CD3/CD28 stimulated CD4+ T cells from RA patients; type: cell-based, human; conditions: listed as KD025
[2] = test system: TGF-β-induced STAT3, MLC and SMAD2/3 phosphorylation; test: TGF-β-induced phosphorylation of STAT3, MLC and SMAD2/3 in Tregs; type: cell-based
PBMCs = test: ex vivo anti-CD3/CD28 stimulated cytokine production in PBMCs isolated from treated patients; design: species or system human; conditions: 120 mg/day, days 1 and 8-14

CC(C)NC(=O)COc1cccc(-c2nc(Nc3ccc4[nH]ncc4c3)c3ccccc3n2)c1 [SLx-2119]
proliferation in response to TCR stimulation (human CD4^+ T cells): inhibits; also recorded: down-regulated their ability to proliferate
STAT3 phosphorylation (STAT3; Th17-skewing conditions 5 days, then treated 3 hours): STAT3 phosphorylation was reduced
phosphorylation of STAT3 (STAT3; pre-treatment, then anti-CD3/CD28 stimulation): reduced phosphorylation of STAT3
phosphorylation of STAT3, IFR4 and RORγT (STAT3; separate experiment (FIG. 9C)): reduced phosphorylation
phosphorylation of STAT3 (STAT3; two different experimental designs, listed as KD025): inhibits STAT3 phosphorylation; also recorded: significantly down-regulates
secretion of IFN-γ [1]: inhibits; also recorded: significantly down-regulated
secretion of IL-17 [1]: inhibits; also recorded: significantly down-regulated
secretion of IL-21 [1]: inhibits; also recorded: significantly down-regulated
TGF-β-induced STAT3 and MLC phosphorylation [2]: down-regulates
induction of IL-17 secretion in PBMCs (PBMCs): significantly inhibited in PBMCs isolated from four of five patients
induction of IL-21 secretion in PBMCs (PBMCs): significantly inhibited in PBMCs from all five patients
